From patent publication US10399940B2, “Substituted pyrrolidines and methods of use” (AbbVie S.à.r.l., priority 2016, dated 2019)
Like-named read-outs stand apart in the source and are kept apart here.

Molecular target: T1, F508delCFTR (Homo sapiens, UniProt P13569, DEL508-508)
T1 construct: expressed in transfected cells; host or cells: CFBE41o- (human lung derived epithelial cell line), doxycycline-inducible expression
Assay: Cell Surface Expression-Horse Radish Peroxidase (CSE-HRP) assay
Type: cell-based
Conditions: CFBE41o-F508delCFTR-HRP cells; for Maximum % activity (with co-corrector): with co-corrector (2 μM); for Maximum % activity (with co-corrector) / Maximum % activity (without co-corrector): normalized to on-plate positive control, highest concentration 20 μM
Method in brief: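 Surface F508delCFTR-HRP was read by luminol luminescence after 18–24 h compound exposure at 33 °C, without or with 2 μM co-corrector. Doses were eight 3-fold steps from 20 μM, in doxycycline-induced (0.5 μg/mL, 72 h) CFBE41o- cells. % activity was scaled to the on-plate 2 μM positive control minus DMSO; EC50 came from a variable-slope sigmoid fit.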

[1] = test compound without co-corrector, 18-24 hours at 33° C., read-out: EC50 (without co-corrector)
[2] = with co-corrector (2 μM of 3-[(2R,4R)-4-({[1-(2,2-difluoro-1,3-benzodioxol-5-yl)cyclopropyl]carbonyl}amino)-7-methoxy-3,4-dihydro-2H-chromen-2-yl]benzoic acid), read-out: EC50 (with co-corrector)

T1 sequence (P13569 with tags, fused parts or gaps DEL508-508): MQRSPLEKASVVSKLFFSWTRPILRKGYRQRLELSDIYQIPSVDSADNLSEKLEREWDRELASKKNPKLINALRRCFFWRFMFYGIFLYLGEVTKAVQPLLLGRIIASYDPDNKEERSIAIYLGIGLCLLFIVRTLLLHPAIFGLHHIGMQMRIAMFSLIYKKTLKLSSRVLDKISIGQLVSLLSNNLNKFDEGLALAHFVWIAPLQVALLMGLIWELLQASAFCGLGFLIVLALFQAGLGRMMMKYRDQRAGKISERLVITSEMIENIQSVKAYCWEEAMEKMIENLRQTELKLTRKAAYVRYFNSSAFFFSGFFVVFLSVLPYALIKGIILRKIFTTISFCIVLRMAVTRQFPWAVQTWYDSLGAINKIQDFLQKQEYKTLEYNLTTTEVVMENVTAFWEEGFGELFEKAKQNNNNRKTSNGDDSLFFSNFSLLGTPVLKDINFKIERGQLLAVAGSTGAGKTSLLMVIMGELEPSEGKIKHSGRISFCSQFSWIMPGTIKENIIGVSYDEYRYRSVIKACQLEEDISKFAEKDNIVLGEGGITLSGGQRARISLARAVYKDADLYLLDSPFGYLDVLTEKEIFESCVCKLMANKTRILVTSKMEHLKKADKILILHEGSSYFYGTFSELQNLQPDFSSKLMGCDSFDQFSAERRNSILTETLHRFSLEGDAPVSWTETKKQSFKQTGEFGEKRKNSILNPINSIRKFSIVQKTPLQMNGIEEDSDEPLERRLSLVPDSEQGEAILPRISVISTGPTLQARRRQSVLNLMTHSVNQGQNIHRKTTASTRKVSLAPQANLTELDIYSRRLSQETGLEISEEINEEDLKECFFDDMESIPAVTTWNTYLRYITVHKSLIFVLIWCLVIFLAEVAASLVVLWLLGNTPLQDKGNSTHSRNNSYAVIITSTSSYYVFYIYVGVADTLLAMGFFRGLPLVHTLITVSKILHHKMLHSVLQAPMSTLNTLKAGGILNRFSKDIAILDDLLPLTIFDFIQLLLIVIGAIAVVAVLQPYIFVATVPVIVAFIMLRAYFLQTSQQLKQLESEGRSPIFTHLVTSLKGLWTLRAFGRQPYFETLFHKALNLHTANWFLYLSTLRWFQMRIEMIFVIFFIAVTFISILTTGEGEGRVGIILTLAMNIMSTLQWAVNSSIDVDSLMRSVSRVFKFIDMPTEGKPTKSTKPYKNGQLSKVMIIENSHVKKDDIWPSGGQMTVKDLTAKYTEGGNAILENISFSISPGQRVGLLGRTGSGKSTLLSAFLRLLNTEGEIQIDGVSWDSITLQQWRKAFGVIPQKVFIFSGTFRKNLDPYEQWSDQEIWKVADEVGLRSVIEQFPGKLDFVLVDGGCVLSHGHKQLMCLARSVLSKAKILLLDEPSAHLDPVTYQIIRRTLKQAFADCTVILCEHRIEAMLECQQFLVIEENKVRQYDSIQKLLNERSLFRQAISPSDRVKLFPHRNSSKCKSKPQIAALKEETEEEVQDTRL

SMILES	EC50 [1]	EC50 [2]	Maximum % activity (with co-corrector)	Maximum % activity (without co-corrector)
COc1ccc(C(F)(F)F)cc1C(C)CO[C@H]1[C@H](C(C)(C)C)[C@@H](C(=O)O)N(C(=O)[C@@H]2CCCCO2)[C@H]1c1ccccc1C (stereo partly drawn) [Example 261, (2S,3R,4S,5S)-3-tert-butyl-4-{2-[2-methoxy-5-(trifluoromethyl)phenyl]propoxy}-5-(2-methylphenyl)-1-[(2S)-oxane-2-carbonyl]pyrrolidine-2-carboxylic acid]	1000 to 10000 nM	< 1000 nM	+++ (≥350)	+++ (≥200)
COc1ncc(C(F)(F)F)cc1CO[C@H]1[C@H](C(C)(C)C)[C@@H](C(=O)O)N(C(=O)[C@@H]2CCCO2)[C@H]1c1ccnn1C(C)C [Example 127, (2S,3R,4S,5S)-3-tert-butyl-4-{[2-methoxy-5-(trifluoromethyl)pyridin-3-yl]methoxy}-1-[(2S)-oxolane-2-carbonyl]-5-[1-(propan-2-yl)-1H-pyrazol-5-yl]pyrrolidine-2-carboxylic acid]	> 10000 nM	> 10000 nM	+ (<150)	+ (<100)
COc1ccc(C(F)(F)F)cc1CO[C@H]1[C@H](C(C)(C)C)[C@@H](C(=O)NS(=O)(=O)C2CC2)N(C(=O)C2CCCCC2)[C@H]1c1ccccc1 [Example 23, (2S,3R,4S,5S)-3-tert-butyl-1-(cyclohexanecarbonyl)-N-(cyclopropanesulfonyl)-4-{[2-methoxy-5-(trifluoromethyl)phenyl]methoxy}-5-phenylpyrrolidine-2-carboxamide]	> 10000 nM	1000 to 10000 nM	++ (≥150 and <350)	+ (<100)
COc1ncc(-c2ccccc2)cc1CO[C@H]1[C@H](C(C)(C)C)[C@@H](C(=O)O)N(C(=O)C2CCCCC2)[C@H]1c1ccccc1F [Example 52, (2S,3R,4S,5S)-3-tert-butyl-1-(cyclohexanecarbonyl)-5-(2-fluorophenyl)-4-[(2-methoxy-5-phenylpyridin-3-yl)methoxy]pyrrolidine-2-carboxylic acid]	1000 to 10000 nM	1000 to 10000 nM	+++ (≥350)	+ (<100)
COc1ccc(-c2ccccc2)cc1CO[C@H]1[C@H](C(C)(C)C)[C@@H](C(=O)O)N(C(=O)[C@@H]2CCC[C@@H](OC)C2)[C@H]1c1ccccc1 [Example 39, (2S,3R,4S,5S)-3-tert-butyl-4-[(4-methoxy[1,1′-biphenyl]-3-yl)methoxy]-1-[(1R,3R)-3-methoxycyclohexane-1-carbonyl]-5-phenylpyrrolidine-2-carboxylic acid]	1000 to 10000 nM	1000 to 10000 nM	+++ (≥350)	+++ (≥200)
COc1ncc(C(F)(F)F)cc1CO[C@H]1[C@H](C(C)(C)OC)[C@@H](C(=O)O)N(C(=O)C2CCCCC2)[C@H]1c1ccccc1C(C)C [Example 258, (2S,3R,4S,5S)-1-(cyclohexanecarbonyl)-3-(2-methoxypropan-2-yl)-4-{[2-methoxy-5-(trifluoromethyl)pyridin-3-yl]methoxy}-5-[2-(propan-2-yl)phenyl]pyrrolidine-2-carboxylic acid]	< 1000 nM	< 1000 nM	+++ (≥350)	+++ (≥200)
COc1ccc(C(C)(C)C#N)cc1CO[C@H]1[C@H](C(C)(C)C)[C@@H](C(=O)O)N(C(=O)[C@@H]2CCCCO2)[C@H]1c1ccccc1C [Example 187, (2S,3R,4S,5S)-3-tert-butyl-4-{[5-(2-cyanopropan-2-yl)-2-methoxyphenyl]methoxy}-5-(2-methylphenyl)-1-[(2S)-oxane-2-carbonyl]pyrrolidine-2-carboxylic acid]	1000 to 10000 nM	< 1000 nM	+++ (≥350)	+++ (≥200)
COc1ncc(C(F)(F)F)cc1CO[C@H]1[C@H](C(C)(C)C)[C@@H](C(=O)O)N(C(=O)[C@@H]2CCCCO2)[C@H]1c1ccccc1-c1ccn(C)c1 [Example 199, (2S,3R,4S,5S)-3-tert-butyl-4-{[2-methoxy-5-(trifluoromethyl)pyridin-3-yl]methoxy}-5-[2-(1-methyl-1H-pyrrol-3-yl)phenyl]-1-[(2S)-oxane-2-carbonyl]pyrrolidine-2-carboxylic acid]	1000 to 10000 nM	1000 to 10000 nM	+++ (≥350)	+++ (≥200)
COc1ccc(C(F)(F)F)cc1OCCO[C@H]1[C@H](C(C)(C)C)[C@@H](C(=O)O)N(C(=O)[C@@H]2CCCCO2)[C@H]1c1ccccc1C [Example 288, (2S,3R,4S,5S)-3-tert-butyl-4-{2-[2-methoxy-5-(trifluoromethyl)phenoxy]ethoxy}-5-(2-methylphenyl)-1-[(2S)-oxane-2-carbonyl]pyrrolidine-2-carboxylic acid]	1000 to 10000 nM	1000 to 10000 nM	+++ (≥350)	++ (≥100 and <200)
CO[C@H]1CCC[C@H](C(=O)N2[C@H](c3ccccc3)[C@H](Oc3cc(C(F)(F)F)cc(C)n3)[C@@H](C(C)(C)C)[C@@H]2C(=O)O)C1 [Example 28, (2R,3S,4R,5R)-3-tert-butyl-1-[(1S,3S)-3-methoxycyclohexane-1-carbonyl]-4-{[6-methyl-4-(trifluoromethyl)pyridin-2-yl]oxy}-5-phenylpyrrolidine-2-carboxylic acid]	1000 to 10000 nM	1000 to 10000 nM	+++ (≥350)	++ (≥100 and <200)

More lines, now with the values ahead:

EC50 [1]	EC50 [2]	Maximum % activity (with co-corrector)	Maximum % activity (without co-corrector)	SMILES
1000 to 10000 nM	1000 to 10000 nM	+++ (≥350)	++ (≥100 and <200)	COc1ccc(Cl)cc1COC1[C@@H](c2ccccc2)N(C(=O)OC(C)C)[C@@H](C(=O)O)[C@@H]1C(C)(C)C (mixture of isomers) [Example 17, rac-(2R,3S,5R)-3-tert-butyl-4-[(5-chloro-2-methoxyphenyl)methoxy]-5-phenyl-1-{[(propan-2-yl)oxy]carbonyl}pyrrolidine-2-carboxylic acid]
1000 to 10000 nM	1000 to 10000 nM	+++ (≥350)	++ (≥100 and <200)	COc1ncc(Br)cc1CO[C@H]1[C@H](C(C)(C)C)[C@@H](C(=O)O)N(C(=O)OC(C)C)[C@H]1c1ccccc1 [Example 40, (2S,3R,4S,5S)-4-[(5-bromo-2-methoxypyridin-3-yl)methoxy]-3-tert-butyl-5-phenyl-1-{[(propan-2-yl)oxy]carbonyl}pyrrolidine-2-carboxylic acid]
1000 to 10000 nM	1000 to 10000 nM	++ (≥150 and <350)	+ (<100)	COc1ncc(C(F)(F)F)cc1CO[C@H]1[C@H](C(C)(C)C)[C@@H](C(=O)O)N(C(=O)OC(C)C)[C@H]1c1cccc(Cl)c1 [Example 79, (2S,3R,4S,5S)-3-tert-butyl-5-(3-chlorophenyl)-4-{[2-methoxy-5-(trifluoromethyl)pyridin-3-yl]methoxy}-1-{[(propan-2-yl)oxy]carbonyl}pyrrolidine-2-carboxylic acid]
> 10000 nM	> 10000 nM	+ (<150)	+ (<100)	COc1ncc(C(F)(F)F)cc1CO[C@@H]1[C@H](C(C)(C)C)[C@@H](C(=O)O)N(C(=O)[C@@H]2CCCO2)[C@H]1c1ccccc1Br [Example 126, (2S,3R,4R,5S)-5-(2-bromophenyl)-3-tert-butyl-4-{[2-methoxy-5-(trifluoromethyl)pyridin-3-yl]methoxy}-1-[(2S)-oxolane-2-carbonyl]pyrrolidine-2-carboxylic acid]
1000 to 10000 nM	1000 to 10000 nM	+++ (≥350)	+ (<100)	COc1cc(C(F)(F)F)ccc1CO[C@H]1[C@H](C(C)(C)C)[C@@H](C(=O)O)N(C(=O)[C@H]2CCC[C@H](OC)C2)[C@H]1c1ccccc1 [Example 32, (2S,3R,4S,5S)-3-tert-butyl-1-[(1S,3S)-3-methoxycyclohexane-1-carbonyl]-4-{[2-methoxy-4-(trifluoromethyl)phenyl]methoxy}-5-phenylpyrrolidine-2-carboxylic acid]
1000 to 10000 nM	1000 to 10000 nM	+++ (≥350)	+ (<100)	COc1ncc(C2CCC2)cc1CO[C@H]1[C@H](C(C)(C)C)[C@@H](C(=O)O)N(C(=O)OC(C)C)[C@H]1c1ccccc1C(F)(F)F [Example 145, (2S,3R,4S,5S)-3-tert-butyl-4-[(5-cyclobutyl-2-methoxypyridin-3-yl)methoxy]-1-{[(propan-2-yl)oxy]carbonyl}-5-[2-(trifluoromethyl)phenyl]pyrrolidine-2-carboxylic acid]
< 1000 nM	< 1000 nM	++ (≥150 and <350)	+ (<100)	COc1ncc(C(F)(F)F)cc1CO[C@H]1[C@H](C(C)(C)C)[C@@H](C(=O)O)N(C(=O)[C@@H]2CCCO2)[C@H]1c1cccc(C(C)(C)C)c1 [Example 121, (2S,3R,4S,5S)-3-tert-butyl-5-(3-tert-butylphenyl)-4-{[2-methoxy-5-(trifluoromethyl)pyridin-3-yl]methoxy}-1-[(2S)-oxolane-2-carbonyl]pyrrolidine-2-carboxylic acid]
